Each structure is given as a SMILES string.

From patent publication US4874751A, “Antibacterial treatment” (priority 1985, dated 1989) come the findings set out here.

As to `Cc1cn([C@H]2C[C@H](N=[N+]=[N-])[C@@H](CO)O2)c(=O)[nH]c1=O`, the LD50 result in the data set “LD50 in mice” and in “LD50 in rats” was “greater than 750 mg/kg” throughout.
